The source of these data is US20210269434A1, “TRICYCLIC COMPOUNDS AS INHIBITORS OF KRAS” (Incyte Corporation, priority 2020, published 2021).

One experiment concerns the target KRAS G12C (Homo sapiens, UniProt P01116, G12C). The experiment in a line: GDP-GTP exchange assay (KRAS_G12C exchange). The class given is biochemical. As to conditions: bodipy-GDP loaded KRAS G12C 2.5 nM, SOS1 150 nM, GppNHp; 2 hours pre-incubation, 2 hours reaction; read-out: G12C_exchange. The gist of the method: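 Fluorescence exchange of bodipy-GDP for GppNHp, SOS1-driven, read at 485/520 nm; IC50 from four-parameter variable-slope fit. Both mutants used 2.5 nM final labelled protein and a 2 h compound pre-incubation. G12C reaction had 500 uM GppNHp and 150 nM SOS1 for 2 h; G12D ran 4 h.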

The subject of experiment [1] is MIA PaCa-2 (KRAS G12C) cells. The experiment in a line: Cellular pERK HTRF assay (KRAS_G12C pERK). The note with it: Homo sapiens, MIA PaCa-2, 4 hours incubation, read-out: G12C_pERK. It counts as cell-based, human. Put shortly:
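MIA PaCa-2 cells plated overnight, then exposed to compound for 4 h at 37 °C (G12C compounds). Phospho-ERK1/2 measured in lysates by HTRF (665/620 nm) after overnight antibody incubation; IC50 from percent inhibition versus log concentration.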

Sequence of KRAS G12C (P01116 1-188 isoform P01116-2 G12C): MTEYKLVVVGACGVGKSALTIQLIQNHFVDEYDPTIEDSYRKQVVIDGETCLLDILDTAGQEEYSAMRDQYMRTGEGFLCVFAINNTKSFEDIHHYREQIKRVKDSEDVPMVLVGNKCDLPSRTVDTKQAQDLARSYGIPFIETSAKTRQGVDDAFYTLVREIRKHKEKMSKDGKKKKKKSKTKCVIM

In the case of `CC#CC(=O)N1CC[C@H](n2nnc3c(N4CC(C)(N(C)C)C4)nc4c(F)c(-c5cccc(Cl)c5C)c(C(F)(F)F)cc4c32)C[C@H]1CC#N` [Example 239a, 2-((2S,4S)-1-(but-2-ynoyl)-4-(7-(3-chloro-2-methyl-phenyl)-4-(3-(dimethyl-amino)-3-methylazetidin-1-yl)-6-fluoro-8-(trifluoro-methyl)-1H-[1,2,3]triazolo-[4,5-c]quinolin-1-yl)piperidin-2-yl)acetonitrile], the IC50 (at KRAS G12C; in experiment [1]) was no more than 100 nM in each case.

With `Cc1c(Cl)cccc1-c1c(C(F)(F)F)cc2c(nc(N3CC(C)(N(C)C)C3)c3nnn([C@H]4CCN(C(=O)/C=C/CN(C)C)[C@H](CC#N)C4)c32)c1F` [Example 240, 2-((2S,4S)-4-(7-(3-chloro-2-methylphenyl)-4-(3-(dimethylamino)-3-methylazetidin-1-yl)-6-fluoro-8-(trifluoromethyl)-1H-[1,2,3]triazolo[4,5-c]quinolin-1-yl)-1-((E)-4-(dimethylamino)but-2-enoyl)piperidin-2-yl)acetonitrile], the IC50 (at KRAS G12C; in experiment [1]) was no more than 100 nM each time.

As to `CC#CC(=O)N1CC[C@H](n2nnc3c(OC[C@@H]4CCCN4C)nc4c(F)c(-c5cccc(Cl)c5C)c(CCC#N)cc4c32)C[C@H]1CC#N` [Example 241a, 3-(1-((2S,4S)-1-(but-2-ynoyl)-2-(cyanomethyl)-piperidin-4-yl)-7-(3-chloro-2-methylphenyl)-6-fluoro-4-(((S)-1-methylpyrrolidin-2-yl)methoxy)-1H-[1,2,3]triazolo[4,5-c]quinolin-8-yl)propanenitrile], the IC50 (on KRAS G12C; in experiment [1]) was no more than 100 nM throughout.

On to `COc1c(Cl)cccc1-c1c(C(F)(F)F)cc2c(nc(N3CC(C)(N(C)C)C3)c3nnn([C@H]4CCN(C(=O)/C=C/CN(C)C)[C@H](CC#N)C4)c32)c1F` [Example 244, 2-((2S,4S)-4-(7-(3-chloro-2-methoxyphenyl)-4-(3-(dimethylamino)-3-methylazetidin-1-yl)-6-fluoro-8-(trifluoromethyl)-1H-[1,2,3]triazolo[4,5-c]quinolin-1-yl)-1-((E)-4-(dimethylamino)but-2-enoyl)piperidin-2-yl)acetonitrile], for which the IC50 (at KRAS G12C; in experiment [1]) was no more than 100 nM each time.

For the compound `COc1c(C)cccc1-c1c(C(F)(F)F)cc2c(nc(N3CC(C)(N(C)C)C3)c3nnn([C@H]4CCN(C(=O)/C=C/CN(C)C)[C@H](CC#N)C4)c32)c1F` [Example 246, 2-((2S,4S)-4-(7-(2-methoxy-3-methylphenyl)-4-(3-(dimethylamino)-3-methylazetidin-1-yl)-6-fluoro-8-(trifluoromethyl)-1H-[1,2,3]triazolo[4,5-c]quinolin-1-yl)-1-((E)-4-(dimethylamino)but-2-enoyl)piperidin-2-yl)acetonitrile], the IC50 (on KRAS G12C; in experiment [1]) was no more than 100 nM each time.

Consider `C=CC(=O)N1CC[C@H](n2nnc3c(N4CC(N(C)C)C4)nc4c(F)c(-c5cccc(C)c5Cl)c(C)cc4c32)C[C@H]1CC#N` [Example 247, 2-((2S,4S)-1-acryloyl-4-(7-(2-chloro-3-methylphenyl)-4-(3-(dimethylamino)azetidin-1-yl)-6-fluoro-8-methyl-1H-[1,2,3]triazolo[4,5-c]quinolin-1-yl)piperidin-2-yl)acetonitrile], for which the IC50 (at KRAS G12C; in experiment [1]) was no more than 100 nM in each case.

Regarding `Cc1cccc(-c2c(C)cc3c(nc(N4CC(N(C)C)C4)c4nnn([C@H]5CCN(C(=O)/C=C/CF)[C@H](CC#N)C5)c43)c2F)c1Cl` [Example 248, 2-((2S,4S)-4-(7-(2-chloro-3-methylphenyl)-4-(3-(dimethylamino)azetidin-1-yl)-6-fluoro-8-methyl-1H-[1,2,3]triazolo[4,5-c]quinolin-1-yl)-1-((E)-4-fluorobut-2-enoyl)piperidin-2-yl)acetonitrile], the IC50 (at KRAS G12C; in experiment [1]) was no more than 100 nM throughout.

As for `Cc1cccc(-c2c(C)cc3c(nc(N4CC(N(C)C)C4)c4nnn([C@H]5CCN(C(=O)/C=C/CN(C)C)[C@H](CC#N)C5)c43)c2F)c1Cl` [Example 249, 2-((2S,4S)-4-(7-(2-chloro-3-methylphenyl)-4-(3-(dimethylamino)azetidin-1-yl)-6-fluoro-8-methyl-1H-[1,2,3]triazolo[4,5-c]quinolin-1-yl)-1-((E)-4-(dimethylamino)but-2-enoyl)piperidin-2-yl)acetonitrile], the IC50 (on KRAS G12C; in experiment [1]) was no more than 100 nM in each case.

For the compound `CC#CC(=O)N1CC[C@H](n2nnc3c(N4CC(N(C)C)C4)nc4c(F)c(-c5cccc(C)c5Cl)c(C)cc4c32)C[C@H]1CC#N` [Example 250, 2-((2S,4S)-1-(but-2-ynoyl)-4-(7-(2-chloro-3-methylphenyl)-4-(3-(dimethylamino)azetidin-1-yl)-6-fluoro-8-methyl-1H-[1,2,3]triazolo[4,5-c]quinolin-1-yl)piperidin-2-yl)acetonitrile], the IC50 (at KRAS G12C; in experiment [1]) was no more than 100 nM throughout.

As for `C=CC(=O)N1CC[C@H](n2nnc3c(OC[C@@H]4CCCN4C)nc4c(F)c(-c5cccc(C)c5Cl)c(C)cc4c32)C[C@H]1CC#N` [Example 251, 2-((2S,4S)-1-acryloyl-4-(7-(2-chloro-3-methylphenyl)-6-fluoro-8-methyl-4-(((S)-1-methylpyrrolidin-2-yl)methoxy)-1H-[1,2,3]triazolo[4,5-c]quinolin-1-yl)piperidin-2-yl)acetonitrile], the IC50 (on KRAS G12C; in experiment [1]) was no more than 100 nM throughout.

Turning to `Cc1cccc(-c2c(C)cc3c(nc(-n4ccnc4C)c4nnn([C@H]5CCN(C(=O)/C=C/CN(C)C)[C@H](CC#N)C5)c43)c2F)c1Cl` [Example 252, 2-((2S,4S)-4-(7-(2-chloro-3-methylphenyl)-6-fluoro-8-methyl-4-(2-methyl-1H-imidazol-1-yl)-1H-[1,2,3]triazolo[4,5-c]quinolin-1-yl)-1-((E)-4-(dimethylamino)but-2-enoyl)piperidin-2-yl)acetonitrile], the IC50 (at KRAS G12C; in experiment [1]) was no more than 100 nM in each case.

With `Cc1cccc(-c2c(C)cc3c(nc(OC[C@@H]4CCCN4C)c4nnn([C@H]5CCN(C(=O)/C=C/CF)[C@H](CC#N)C5)c43)c2F)c1Cl` [Example 253, 2-((2S,4S)-4-(7-(2-chloro-3-methylphenyl)-6-fluoro-8-methyl-4-(((S)-1-methylpyrrolidin-2-yl)methoxy)-1H-[1,2,3]triazolo[4,5-c]quinolin-1-yl)-1-((E)-4-fluorobut-2-enoyl)piperidin-2-yl)acetonitrile], the IC50 (on KRAS G12C; in experiment [1]) was no more than 100 nM in each case.

For `CC#CC(=O)N1CC[C@H](n2nnc3c(OC[C@@H]4CCCN4C)nc4c(F)c(-c5cccc(C)c5Cl)c(C)cc4c32)C[C@H]1CC#N` [Example 254, 2-((2S,4S)-1-(but-2-ynoyl)-4-(7-(2-chloro-3-methylphenyl)-6-fluoro-8-methyl-4-(((S)-1-methylpyrrolidin-2-yl)methoxy)-1H-[1,2,3]triazolo[4,5-c]quinolin-1-yl)piperidin-2-yl)acetonitrile], the IC50 (at KRAS G12C; in experiment [1]) was no more than 100 nM in each case.

For `C=CC(=O)N1CC[C@H](n2nnc3c(N4CC(C)(N(C)C)C4)nc4c(F)c(-c5cccc(C)c5Cl)c(C)cc4c32)C[C@H]1CC#N` [Example 255, 2-((2S,4S)-1-acryloyl-4-(7-(2-chloro-3-methylphenyl)-4-(3-(dimethylamino)-3-methylazetidin-1-yl)-6-fluoro-8-methyl-1H-[1,2,3]triazolo[4,5-c]quinolin-1-yl)piperidin-2-yl)acetonitrile], the IC50 (at KRAS G12C; in experiment [1]) was no more than 100 nM each time.

As for `Cc1cccc(-c2c(C)cc3c(nc(N4CC(C)(N(C)C)C4)c4nnn([C@H]5CCN(C(=O)/C=C/CF)[C@H](CC#N)C5)c43)c2F)c1Cl` [Example 256, 2-((2S,4S)-4-(7-(2-chloro-3-methylphenyl)-4-(3-(dimethylamino)-3-methylazetidin-1-yl)-6-fluoro-8-methyl-1H-[1,2,3]triazolo[4,5-c]quinolin-1-yl)-1-((E)-4-fluorobut-2-enoyl)piperidin-2-yl)acetonitrile], the IC50 (at KRAS G12C; in experiment [1]) was no more than 100 nM in each case.

On to `Cc1cccc(-c2c(C)cc3c(nc(N4CC(C)(N(C)C)C4)c4nnn([C@H]5CCN(C(=O)/C=C/CN(C)C)[C@H](CC#N)C5)c43)c2F)c1Cl` [Example 257, 2-((2S,4S)-4-(7-(2-chloro-3-methylphenyl)-4-(3-(dimethylamino)-3-methylazetidin-1-yl)-6-fluoro-8-methyl-1H-[1,2,3]triazolo[4,5-c]quinolin-1-yl)-1-((E)-4-(dimethylamino)but-2-enoyl)piperidin-2-yl)acetonitrile], for which the IC50 (at KRAS G12C; in experiment [1]) was no more than 100 nM each time.

For `CC#CC(=O)N1CC[C@H](n2nnc3c(N4CC(C)(N(C)C)C4)nc4c(F)c(-c5cccc(C)c5Cl)c(C)cc4c32)C[C@H]1CC#N` [Example 258, 2-((2S,4S)-1-(but-2-ynoyl)-4-(7-(2-chloro-3-methylphenyl)-4-(3-(dimethylamino)-3-methylazetidin-1-yl)-6-fluoro-8-methyl-1H-[1,2,3]triazolo[4,5-c]quinolin-1-yl)piperidin-2-yl)acetonitrile], the IC50 (at KRAS G12C; in experiment [1]) was no more than 100 nM each time.

On to `C=CC(=O)N1CC[C@H](n2nnc3c(N4CCOCC4=O)nc4c(F)c(-c5cccc(C)c5Cl)c(C)cc4c32)C[C@H]1CC#N` [Example 259, 2-((2S,4S)-1-acryloyl-4-(7-(2-chloro-3-methylphenyl)-6-fluoro-8-methyl-4-(3-oxomorpholino)-1H-[1,2,3]triazolo[4,5-c]quinolin-1-yl)piperidin-2-yl)acetonitrile], for which the IC50 (on KRAS G12C; in experiment [1]) was no more than 100 nM in each case.
